For data set [1], the system named is gram positive bacteria, gram negative bacteria, methicillin resistant bacteria, penicillin resistant bacteria, and the known quinolone resistant strains. Conditions: cited from earlier work.
The conditions of data set [2]: See Korean Patent No. 10-566346; cited from earlier work.
Data set [3] is described as follows: Solubility of various salt forms in various solvents at room temperature (Example 4A). It is filed as physicochemical. Particulars: read-out: Salt Form Solubility.
A short description of data set [4]: Solubility of various salts in distilled water, converted into free base (Example 4B). Particulars: room temperature, converted into the corresponding solubilities of free base.
Data set [5] relates to Bone Marrow Cells of Male Mice. Put plainly: Micronucleus test in bone marrow cells of male mice (Example 14). Particulars: 70 mg/kg intraperitoneally.
Experimental: 70 mg/kg intraperitoneally administration of CPA is used as a positive control dosage (seven male ICR mice are used in each group). Twenty-four hours after single injection administration, all animals are sacrificed and the changes on the number of polychromatic erythrocyte with one or more nuclei (MNPCE) are evaluated with the changes on the total white blood cells and difference counts on the neutrophils and lymphocytes on the prepared blood. In addition, PCE/(PCE+normochromatic erythrocytes (NCE)) ratio are calculated by counting 500 erythrocytes for detecting possibility of cytotoxicity.
The subject of data set [6] is male ICR mice. The data set can be described thus: Mouse toxicity test, intraperitoneal (Example 6). As to the method: Male ICR mice are divided into six dose groups (five mice per group), and then fasted (no food is given except water) for 24 hours. […] A median lethal dose (LD50), an approximate lethal dose, and a maximum tolerate dose are determined after observation for 14 days.
Necropsy and histopathology findings are also performed.

Data set [7] can be described thus: Pharmacokinetic study after intravenous administration in rats (Example 10). Conditions: 10 mg/kg i.v. in male SD rats.
The conditions of data set [8]: in vivo.
For data set [9] the following is noted: mouse, in vivo. On the procedure:
Seven week old male mice (ICR CD-1), 28-31 g of body weight upon receipt, are used.
Blood is sampled at 0.25, 0.5, 1, 1.5, 2, 3, 4, and 5 hours after dosing by orbital puncture.

[10] abbreviates: 24 hours after single injection.
[11] abbreviates: male ICR mice, intraperitoneal, 14 days observation.
Where [12] appears, read: male, ICR, mouse, in vivo, ip, 14 days.

Read-outs that look alike come from different tables or passages of the source.

Broadly, the Solubility is the concentration that dissolves in the medium under given conditions. As for `CON=C1CN(c2nc3c(cc2F)c(=O)c(C(=O)O)cn3C2CC2)CC12CNC2` [Parent Compound], in data set [1], the Antimicrobial activity result was “excellent antimicrobial activity”. Moreover, the Aqueous solubility result in data set [2] is listed as “low”. Besides, the Solubility in [3] (aqueous solution with a pH of 1.2, simulated gastric fluid, pH 1.2, room temperature) is 7.7 mg/mL; in data set [3] (aqueous solution with a pH of 6.8, aqueous buffer, pH 6.8, room temperature) it was 0.038 mg/mL; in [3] (solvent of pH 4.0, aqueous buffer, pH 4.0, room temperature), 6.49 mg/mL.

For Maleate, in data set [4], the Solubility came out at 0.18 mg/mL.

For Fumarate, the Solubility in data set [4] was 0.63 mg/mL.

In the case of `O=C(O)c1ccccc1O` [Salicylate], in data set [4], the Solubility worked out at 0.11 mg/mL.

Consider `O=P1(N(CCCl)CCCl)NCCCO1` (stereo not shown) [CPA, cyclophosphamide], for which, in [5] (setting [10]), the “MNPCEs 2000 PCEs” value was found to be 71.86 ± 10.43, the “PCE(PCE + NCE) ratio” value was found to be 0.36 ± 0.07, the “Proportions among 100 leukocytes (%) Lymphocytes” value was 75.71 ± 9.20% and the “Proportions among 100 leukocytes (%) Neutrophils” value turned out to be 21.71 ± 9.45%. Further, in data set [5] (setting [10]), the Total leukocyte numbers is given as 2.36 ± 0.55 ×10^3 cells mm^3. In addition, the “Change of MNPCE” value in [5] (CPA treated group) is on record as “significant increase of MNPCE”. In data set [5] (male ICR mice, single), the “Loss of Locomotion” value is recorded as 0/7 and the Mortality was 0/7.

In data set [6] (setting [11]), `CON=C1CN(c2nc3c(cc2F)c(=O)c(C(=O)O)cn3C2CC2)CC12CNC2.Cl` [Hydrochloride] had an Approximate lethal dose of 250 to 500 mg/kg, a Maximum tolerate dose of 250 mg/kg and a Median lethal dose of 481.93 mg/kg. In data set [7], the “AUC 0-5 hr” value is listed as 6.070 ± 0.731, the AUC inf is 6.283 ± 0.804 µg·h/mL, the C last was found to be 0.137 ± 0.042 µg/mL and the Half-life was determined as 1.061 ± 0.093 h. Also, the T last in [7] was found to be 5.0 ± 0.0 h. Moreover, the Fibrous peritonitis result in [8] is reported as “severe fibrous peritonitis”. In [9] (iv, 10 mg/kg), this compound showed a C last of 0.067 µg/mL, a Half-life of 1.259 h and a T last of 4.0 h. The compound also showed a Half-life in [9] (po, 100 mg/kg) of 2.205 h.

Regarding `CON=C1CN(c2nc3c(cc2F)c(=O)c(C(=O)O)cn3C2CC2)CC12CNC2` [Phosphate], in data set [6] (setting [11]), the Approximate lethal dose lay within 250 to 500 mg/kg and the Median lethal dose was 356.91 mg/kg. For the same compound, the Maximum tolerate dose in [6] (setting [12]) came to 250 mg/kg.

Mandelate: the Solubility in [4] was 1.01 mg/mL.

In [6] (setting [11]), `CON=C1CN(c2nc3c(cc2F)c(=O)c(C(=O)O)cn3C2CC2)CC12CNC2` [Formate] gave an Approximate lethal dose of 500 to 1000 mg/kg and a Median lethal dose of 716.24 mg/kg. Further, the Maximum tolerate dose in [6] (setting [12]) amounted to 500 mg/kg.

With `[Mg]` [Magnesium], the Solubility in [4] is 0.02 mg/mL.

For `CON=C1CN(c2nc3c(cc2F)c(=O)c(C(=O)O)cn3C2CC2)CC12CNC2` [Methanesulfonate], in data set [6] (setting [11]), the Approximate lethal dose was in the range of 500 to 1000 mg/kg and the Median lethal dose was 716.24 mg/kg. The compound further yielded a Maximum tolerate dose in data set [6] (setting [12]) of 500 mg/kg.

The values above are taken from patent publication US8324238B2.
